Structures are written as SMILES.

The term IC50 denotes the concentration that gives 50% inhibition.

The first experiment deals with Recombinant human cathepsin A (Homo sapiens (Human), UniProt P10619). Put plainly: Cathepsin A inhibitory activity (cleavage of Bodipy FL-labeled bradykinin, microfluidic capillary electrophoresis). Type of experiment: biochemical. The following applies: read-out: Activity (Cathepsin A inhibitory activity, IC50).
Sequence of Recombinant human cathepsin A (P10619 29-326): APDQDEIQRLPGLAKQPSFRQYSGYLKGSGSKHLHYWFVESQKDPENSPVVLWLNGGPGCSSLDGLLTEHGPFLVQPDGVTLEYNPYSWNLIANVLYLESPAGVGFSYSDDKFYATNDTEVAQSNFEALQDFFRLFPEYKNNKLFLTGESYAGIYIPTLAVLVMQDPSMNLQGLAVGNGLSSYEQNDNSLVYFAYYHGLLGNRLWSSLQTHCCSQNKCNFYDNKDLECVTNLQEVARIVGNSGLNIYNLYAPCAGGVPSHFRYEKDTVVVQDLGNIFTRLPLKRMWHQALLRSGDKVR
Sequence of Recombinant human cathepsin A (P10619 327-480): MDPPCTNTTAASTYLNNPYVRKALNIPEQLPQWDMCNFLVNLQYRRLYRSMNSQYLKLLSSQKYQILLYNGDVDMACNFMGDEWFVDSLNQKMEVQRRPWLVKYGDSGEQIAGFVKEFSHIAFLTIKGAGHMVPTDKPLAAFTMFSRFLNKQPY
Procedure: Pharmacological Tests a) Cathepsin A Inhibitory Activity
Briefly, cathepsin A was incubated at 10 μg/ml with cathepsin L at 1 μg/ml in activation buffer (25 mM 2-(morpholin-4-yl)-ethanesulfonic acid (MES), pH 6.0, containing 5 mM dithiothreitol (DTT)) for 15 min at 37° C.
The activated cathepsin A was diluted in assay buffer (25 mM MES, pH 5.5, containing 5 mM DTT) and mixed with the test compound (dissolved in assay buffer containing (v/v) 3% DMSO) or, in the control experiments, with the vehicle in a multiple assay plate. After incubation for 15 min at room temperature, as substrate then bradykinin carrying an N-terminal ®Bodipy FL (4,4-difluoro-5,7-dimethyl-4-bora-3a,4a-diaza-s-indacene-3-propionyl) label (JPT Peptide Technologies GmbH; dissolved in assay buffer) was added to the mixture. […] After incubation for 15 min at room temperature the reaction was stopped by the addition of stop buffer (130 mM 2-(4-(2-hydroxy-ethyl)-piperazin-1-yl)-ethanesulfonic acid, pH 7.4, containing (v/v) 0.013% ®Triton X-100, 0.13% Coating Reagent 3 (Caliper Life Sciences), 6.5% DMSO and 20 μM ebelactone B (Sigma, #E0886)).
Uncleaved substrate and product were then separated by a microfluidic capillary electrophoresis on a LabChip® 3000 Drug Discovery System (12-Sipper-Chip; Caliper Life Sciences) and quantified by determination of the respective peak areas. Substrate turnover was calculated by dividing product peak area by the sum of substrate and product peak areas, and the enzyme activity and the inhibitory effect of the test compound thus quantified.
Regarding `O=C(O)C[C@H](NC(=O)c1cccc(-c2ccccc2F)n1)c1cccc(Cl)c1Cl` [compound 606], the IC50 was 3.93 µM. As for `COc1cc(OC)nc(Oc2cccnc2C(=O)NC(CC(=O)O)c2ccccc2Cl)n1` (stereo not shown) [compound 615], the IC50 came to 3.58 µM.

Staying with this experiment, now noted: read-out: Activity (IC50, cathepsin A inhibition).
With `O=C(O)CC(NC(=O)c1cccc(-c2ccccc2F)n1)c1ccccc1Cl` (stereo not shown) [compound 589], the half-maximal inhibitory concentration (IC50) was 4.89 µM. The same measure, in the same setting: under `O=C(O)CC(NC(=O)c1cccc(-c2ccccc2)n1)c1ccccc1Cl` (stereo not shown) [compound 563] stands 3.09 µM.

Take `O=C(O)CC(NC(=O)c1cc(-c2ccccc2)ccn1)c1ccccc1Cl` (stereo not shown) [compound 565]: the IC50 worked out at 4.07 µM. In the case of `O=C(O)CC(NC(=O)c1ccncc1)c1ccccc1Cl` (stereo not shown) [compound 524], the IC50 was 10.2 µM. Consider `Cc1ccnc(C(=O)NC(CC(=O)O)c2ccccc2Cl)c1` (stereo not shown) [compound 528], for which the IC50 amounted to 5.81 µM. Still for that read-out and setting: under `COc1ccc(C(=O)NC(CC(=O)O)c2ccccc2Cl)nc1Cl` (stereo not shown) [compound 550] stands 1.08 µM; under `O=C(O)CC(NC(=O)c1cccc(F)n1)c1ccccc1Cl` (stereo not shown) [compound 531], 7.65 µM; under `COc1ccc(C(=O)N[C@@H](CC(=O)O)c2ccccc2Cl)nc1-c1cccc(C(C)(C)O)c1` [compound 496], 2.86 µM. As to `O=C(O)CC(NC(=O)c1cnccn1)c1ccccc1Cl` (stereo not shown) [compound 521], the IC50 was found to be 12.8 µM.

Take `Cc1ccccc1[C@H](CC(=O)O)NC(=O)c1nc(Cl)ccc1Cl` [compound 506]: the half-maximal inhibitory concentration (IC50) worked out at 8.48 µM.

On to `O=C(O)CC(NC(=O)c1nc(Cl)ccc1Cl)c1ccc(-c2ccccc2)cc1` (stereo not shown) [compound 498], for which the IC50 was 8.55 µM. In the case of `CC(C)Cc1cc(C(=O)NC(CC(=O)O)c2ccccc2Cl)nc(N)n1` (stereo not shown) [compound 557], the IC50 came out at 14 µM. Still for that read-out and setting: then `O=C(O)C[C@H](NC(=O)c1cccc(-c2ccccc2Cl)n1)c1ccccc1` [compound 567], with 2.18 µM.

Still in this experiment, the particulars now being: read-out: Activity (IC50, cathepsin A inhibitory activity).
For the compound `COc1ccc(C(=O)N[C@@H](CC(=O)O)c2ccccc2F)nc1-c1cc(F)cc(F)c1` [compound 279], the IC50 worked out at 3.85 µM. Regarding `COc1ncc(C(=O)N[C@@H](CC(=O)O)c2ccccc2C)cc1-c1cccc(Cl)c1` [compound 413], the IC50 came out at 6.24 µM.

Take `COc1ccc(F)c(-c2nc(C(=O)N[C@@H](CC(=O)O)c3ccc(C)cc3)ccc2OC)c1` [compound 239]: the IC50 amounted to 1.16 µM. Take `COc1ncc(C(=O)N[C@@H](CC(=O)O)c2ccccc2C)cc1-c1ccc(F)c(F)c1` [compound 425]: the IC50 worked out at 8.84 µM.

Regarding `COc1ccc(C(=O)N[C@@H](CC(=O)O)c2ccccc2C)nc1-c1cccc(-c2nnc(C)o2)c1` [compound 471, (S)-3-({5-Methoxy-6-[3-(5-methyl-[1,3,4]oxadiazol-2-yl)-phenyl]-pyridine-2-carbonyl}-amino)-3-o-tolyl-propionic acid], the IC50 is 4.23 µM. As for `COc1ccc(C(=O)N[C@@H](CC(=O)O)c2ccccc2F)nc1-c1cccc(C#N)c1` [compound 273], the IC50 was found to be 9.57 µM. For `COc1ccc(C(=O)N[C@@H](CC(=O)O)c2ccccc2Cl)nc1-c1ccncc1` [compound 443], the half-inhibitory concentration (IC50) was 8.04 µM. On to `COc1ccc(C(=O)N[C@@H](CC(=O)O)c2ccccc2F)nc1-c1cc(C(F)(F)F)ccc1F` [compound 304], for which the IC50 is 3.99 µM.

Consider `COc1ccc(C(=O)N[C@@H](CC(=O)O)c2ccccc2Cl)nc1-c1cc(F)cc(F)c1` [compound 439], for which the IC50 is 2.39 µM. For the compound `COc1ccc(OC)c(-c2nc(C(=O)N[C@@H](CC(=O)O)c3ccccc3Cl)ccc2OC)c1` [compound 461], the IC50 turned out to be 8.31 µM. As to `COc1ccc(C(=O)N[C@@H](CC(=O)O)c2ccccc2F)nc1-c1cccnc1` [compound 284], the IC50 is greater than 10 µM.

`COc1ncc(C(=O)N[C@@H](CC(=O)O)c2ccccc2C)cc1-c1ccc(C)cc1` [compound 410]: the IC50 amounted to 5.38 µM. Take `COc1ccccc1-c1cccc(C(=O)N[C@@H](CC(=O)O)c2ccccc2C)n1` [compound 44]: the IC50 was 1.19 µM. Still for that read-out and setting: then `COc1ccc(Cl)cc1-c1nc(C(=O)N[C@@H](CC(=O)O)c2ccccc2F)ccc1OC` [compound 300], with 4.11 µM; and `COc1ccc(C(=O)N[C@@H](CC(=O)O)c2ccccc2F)nc1-c1cccc(-c2ccccc2)c1` [compound 276], with 2.16 µM; and `COc1ccc(C(=O)N[C@@H](CC(=O)O)c2ccccc2F)nc1-c1cccc(F)c1` [compound 266], with 1.26 µM. On to `Cc1cc(F)ccc1-c1cncc(C(=O)N[C@@H](CC(=O)O)c2ccccc2C)c1` [compound 82], for which the IC50 was determined as 3.08 µM. With `Cc1ccccc1[C@H](CC(=O)O)NC(=O)c1cncc(-c2cccc(F)c2F)c1` [compound 79], the IC50 came to 5.01 µM. Take `COc1ccc(C(=O)N[C@@H](CC(=O)O)c2ccccc2Cl)nc1-c1ccnc(N2CCOCC2)c1` [compound 490]: the IC50 was found to be 9.08 µM. On to `COc1ccc(C(=O)N[C@@H](CC(=O)O)c2ccccc2Cl)nc1-c1ccc(F)c(C)c1` [compound 451], for which the IC50 was determined as 3.79 µM.

`CNc1cncc(C(=O)N[C@@H](CC(=O)O)c2ccccc2C)n1` [compound 12]: the IC50 is 7.32 µM.

With `COc1ccccc1-c1cc(C(=O)N[C@@H](CC(=O)O)c2ccccc2C)cnc1OC` [compound 416], the half-inhibitory concentration (IC50) came out at 3.42 µM. With `Cc1ccccc1[C@H](CC(=O)O)NC(=O)c1ccc2cnccc2n1` [compound 17], the IC50 was 3.09 µM. Regarding `COc1ccc(C(=O)N[C@@H](CC(=O)O)c2ccccc2F)nc1-c1ccc(C)cc1C` [compound 291], the IC50 was found to be 4.02 µM. For the compound `COc1ccc(C(=O)N[C@@H](CC(=O)O)c2ccccc2Cl)nc1-c1cccc(F)c1` [compound 426], the IC50 came to 1.54 µM.

The experiment is the same for the next values; noted with them: read-out: Activity [μM] (IC50, cathepsin A inhibitory activity).
For the compound `COc1ccc(C(=O)N[C@@H](CC(=O)O)c2ccc(C)cc2)nc1-c1ccc(F)cc1` [compound 185], the IC50 is 1.29 µM. Take `COc1ccc(C(=O)N[C@@H](CC(=O)O)c2ccc(C)cc2)nc1-c1ccc(C(C)=O)s1` [compound 210]: the IC50 was 7.52 µM. As for `COc1ccc(C(=O)N[C@@H](CC(=O)O)c2ccccc2F)nc1-c1ccc(Cl)c(F)c1` [compound 313], the IC50 worked out at 3.55 µM. Consider `COc1ncc(C(=O)N[C@@H](CC(=O)O)c2ccccc2Cl)cc1-c1ccc(C)cc1` [compound 388], for which the half-inhibitory concentration (IC50) turned out to be 7.12 µM.

For the compound `Cc1ccccc1[C@H](CC(=O)O)NC(=O)c1cccc(-c2ccc(Cl)cc2)n1` [compound 136], the IC50 was determined as 4.85 µM. For `COc1ccc(C(=O)N[C@@H](CC(=O)O)c2ccccc2C)nc1-c1cccc(F)c1Cl` [compound 383], the half-inhibitory concentration (IC50) came to 1.64 µM. Still for that read-out and setting: then `COc1ncc(C(=O)N[C@@H](CC(=O)O)c2ccccc2Cl)cc1-c1ccccc1` [compound 344, (S)-3-(2-Chloro-phenyl)-3-[(6-methoxy-5-phenyl-pyridine-3-carbonyl)-amino]-propionic acid], with 3.49 µM.

As for `COc1ccc(C(=O)N[C@@H](CC(=O)O)c2ccc(C)cc2)nc1-c1ccc2ccccc2c1` [compound 195], the IC50 is 8.83 µM.

With `COc1ccc(C(=O)N[C@@H](CC(=O)O)c2ccccc2C)nc1-c1cncnc1` [compound 372], the IC50 was found to be 8.88 µM. On to `COc1ccc(C(=O)N[C@@H](CC(=O)O)c2ccccc2F)nc1-c1cccc(C(C)(C)O)c1` [compound 327], for which the IC50 came to 7.32 µM. Same read-out and setting: under `COc1ccc(C(=O)N[C@@H](CC(=O)O)c2ccccc2C)nc1-c1ccc(C(C)=O)cc1` [compound 361] stands 9.24 µM; under `COc1ccc(C(=O)N[C@@H](CC(=O)O)c2ccccc2Cl)nc1-c1ccc(F)c(Cl)c1` [compound 332], 5.24 µM. On the same count and under the same terms, then `Cc1ccccc1[C@H](CC(=O)O)NC(=O)c1cncc(-c2cccc(C)c2C)c1` [compound 116, (S)-3-{[5-(2,3-Dimethyl-phenyl)-pyridine-3-carbonyl]-amino}-3-o-tolyl-propionic acid], with 1.01 µM. Same read-out and setting: under `Cc1ccccc1[C@H](CC(=O)O)NC(=O)c1cccc(-c2ccc(F)cc2)n1` [compound 135] stands 1.18 µM; under `COc1ccc(C(=O)N[C@@H](CC(=O)O)c2ccccc2C)nc1-c1cc(F)cc(F)c1` [compound 362], 1.43 µM; under `COc1ncc(C(=O)N[C@@H](CC(=O)O)c2ccccc2Cl)cc1-c1cccc(C)c1` [compound 395], 6.57 µM. On to `Cc1ccccc1[C@H](CC(=O)O)NC(=O)c1cccc(-c2cc(F)cc(F)c2)n1` [compound 150], for which the IC50 was found to be 1.02 µM. On to `Cc1ccccc1[C@H](CC(=O)O)NC(=O)c1cccc(-c2ccc(F)c(F)c2)n1` [compound 151], for which the IC50 was 1.18 µM. As to `Cc1cc(F)c(-c2cccc(C(=O)N[C@@H](CC(=O)O)c3ccccc3C)n2)cc1Cl` [compound 175], the IC50 turned out to be 2.36 µM.

`COc1ccc(C(=O)N[C@@H](CC(=O)O)c2ccc(C)cc2)nc1-c1cccc(C(C)=O)c1` [compound 203]: the IC50 is 8.35 µM.

Consider `COc1cccc(-c2cc(C(=O)N[C@@H](CC(=O)O)c3ccccc3Cl)cnc2OC)c1` [compound 391], for which the IC50 amounted to 10.6 µM.

Take `COc1ncc(C(=O)N[C@@H](CC(=O)O)c2ccccc2Cl)cc1-c1cccc(Cl)c1` [compound 392, (S)-3-(2-Chloro-phenyl)-3-{[5-(3-choro-phenyl)-6-methoxy-pyridine-3-carbonyl]-amino}-propionic acid]: the IC50 was 10.3 µM. For `COc1ccc(C(=O)N[C@@H](CC(=O)O)c2ccccc2Cl)nc1-c1ccc(C)cc1` [compound 336], the IC50 turned out to be 3.13 µM. Still for that read-out and setting: under `COc1ccc(C(=O)N[C@@H](CC(=O)O)c2ccccc2C)nc1-c1ccc2ccn(C)c2c1` [compound 380] stands 5.33 µM; under `COc1ccc(-c2nc(C(=O)N[C@@H](CC(=O)O)c3ccc(C)cc3)ccc2OC)cc1` [compound 187], 4.85 µM. With `Cc1ccccc1[C@H](CC(=O)O)NC(=O)c1cccc(-c2ccc(F)c(Cl)c2)n1` [compound 134], the IC50 came to 3.62 µM. Turning to `COc1ccc(C(=O)N[C@@H](CC(=O)O)c2ccc(C)cc2)nc1-c1cccc(-c2ccccc2)c1` [compound 204], the IC50 is 1.4 µM.

(Values after patent publication US9029559B2, “Substituted 3-heteroaroylamino-propionic acid derivatives and their use as pharmaceuticals” (SANOFI, priority 2011, dated 2015).)
